On to `O=C(O)/C(=C\c1cc(-c2ccc3c(c2)OCO3)n(-c2cc(Cl)ccc2Cl)n1)c1cccc(Cl)c1` [Example 606, (Z)-3-[5-Benzo[1,3]dioxol-5-yl-1-(2,5-dichloro-phenyl)-1H-pyrazol-3-yl]-2-(3-chloro-phenyl)-acrylic acid], for which the melting point – broadly, the temperature, or range, at which the solid turns liquid – came out at 174 °C. On to `COc1ccc(-n2nc(C[C@H](C(=O)[O-])c3cccc(C)c3)cc2-c2ccc(Cl)c(Cl)c2)cc1.[Na+]` (stereo in doubt), for which the melting point is 295.5 to 297.5 °C.

The values above are taken from patent publication US20060004195A1, “Alpha,beta-unsaturated esters and acids by stereoselective dehydration” (priority 2004, published 2006).
